Calls of active or inactive are those of the source. No cut-off for these calls is given here.
How the values were obtained:
CYP3A4 = CYP3A4 (Homo sapiens, UniProt P08684); test: Inhibition of CYP3A4 at 3 uM; type: ADME
[1] = Aqueous solubility at pH 7.4; type: physicochemical
[2] = Membrane permeability by PAMPA assay; type: ADME; conditions: read-out: permeability
[3] = molecular target: Sodium-dependent serotonin transporter (Homo sapiens, UniProt P31645); type: cell-based, JAR
Description: Inhibition of serotonin uptake at human SERT expressed in JAR cells

[4] = Half life in dog liver microsomes at 1 uM; type: ADME, Canis lupus familiaris, Microsome
[5] = Half life in human liver microsomes at 1 uM; type: ADME, Microsome
CYP2C9 = CYP2C9 (Homo sapiens, UniProt P11712); test: Inhibition of CYP2C9 at 3 uM; type: ADME
[6] = Half life in monkey liver microsomes at 1 uM; type: ADME, Macaca mulatta, Microsome; conditions: rhesus monkey
CYP2D6 = CYP2D6 (Homo sapiens, UniProt P10635); test: Inhibition of CYP2D6 at 3 uM; type: ADME
[7] = Half life in rat liver microsomes at 1 uM; type: ADME, Microsome
[8] = molecular target: Sodium-dependent dopamine transporter (Homo sapiens) (UniProt Q01959); test: Displacement of [3H]WIN-35428 from human recombinant DAT expressed in CHO cells at 1 uM; type: cell-based
[9] = Binding affinity to alpha1 adrenergic receptor
[10] = Binding affinity to alpha2 adrenergic receptor
[11] = molecular target: 5-hydroxytryptamine receptor 2A (Homo sapiens) (UniProt P28223); test: Binding affinity to 5-HT2A receptor
[12] = molecular target: T1, 5-hydroxytryptamine receptor 1A (Homo sapiens) (UniProt P08908); test: Binding affinity to 5-HT1A receptor
T1 sequence (whole entry): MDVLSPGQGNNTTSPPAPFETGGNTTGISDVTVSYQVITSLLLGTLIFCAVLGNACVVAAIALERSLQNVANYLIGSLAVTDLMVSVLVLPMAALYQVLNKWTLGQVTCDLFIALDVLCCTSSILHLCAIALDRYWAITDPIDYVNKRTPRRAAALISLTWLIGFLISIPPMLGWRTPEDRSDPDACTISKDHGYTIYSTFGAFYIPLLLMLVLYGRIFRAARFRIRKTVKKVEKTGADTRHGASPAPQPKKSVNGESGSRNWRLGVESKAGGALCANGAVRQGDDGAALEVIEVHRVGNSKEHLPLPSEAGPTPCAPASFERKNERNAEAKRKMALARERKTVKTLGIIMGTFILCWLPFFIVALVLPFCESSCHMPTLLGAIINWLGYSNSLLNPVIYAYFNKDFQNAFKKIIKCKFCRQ

MDCK-Net6 = test: Selectivity index, ratio of IC50 for human SERT to IC50 for human NET uptake in MDCK-Net6 cell; type: cell-based
[13] = molecular target: T2, Sodium-dependent noradrenaline transporter (Homo sapiens, UniProt P23975)
[14] = molecular target: T2, Sodium-dependent noradrenaline transporter; test: Inhibition of norepinephrine reuptake at human NET expressed in MDCK-Net6 cells at 1000 nM; type: cell-based

Chain of Sodium-dependent serotonin transporter (P31645 whole entry): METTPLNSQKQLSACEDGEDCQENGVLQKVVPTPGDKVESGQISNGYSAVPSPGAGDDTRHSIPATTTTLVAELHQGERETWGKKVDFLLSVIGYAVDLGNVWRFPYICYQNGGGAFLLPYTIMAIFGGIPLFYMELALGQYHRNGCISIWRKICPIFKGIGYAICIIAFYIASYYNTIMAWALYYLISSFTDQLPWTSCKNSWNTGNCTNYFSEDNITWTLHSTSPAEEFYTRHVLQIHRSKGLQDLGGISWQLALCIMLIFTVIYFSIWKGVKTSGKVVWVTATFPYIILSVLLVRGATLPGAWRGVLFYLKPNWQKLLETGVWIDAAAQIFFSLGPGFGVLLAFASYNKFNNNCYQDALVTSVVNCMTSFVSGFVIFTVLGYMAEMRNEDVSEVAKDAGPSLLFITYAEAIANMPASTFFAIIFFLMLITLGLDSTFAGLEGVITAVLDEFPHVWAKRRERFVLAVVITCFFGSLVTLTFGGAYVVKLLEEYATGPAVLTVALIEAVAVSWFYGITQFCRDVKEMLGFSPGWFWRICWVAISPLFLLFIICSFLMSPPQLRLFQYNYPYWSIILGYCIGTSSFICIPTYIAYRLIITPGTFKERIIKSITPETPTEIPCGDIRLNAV
Chain of Sodium-dependent dopamine transporter (Homo sapiens) (Q01959 whole entry): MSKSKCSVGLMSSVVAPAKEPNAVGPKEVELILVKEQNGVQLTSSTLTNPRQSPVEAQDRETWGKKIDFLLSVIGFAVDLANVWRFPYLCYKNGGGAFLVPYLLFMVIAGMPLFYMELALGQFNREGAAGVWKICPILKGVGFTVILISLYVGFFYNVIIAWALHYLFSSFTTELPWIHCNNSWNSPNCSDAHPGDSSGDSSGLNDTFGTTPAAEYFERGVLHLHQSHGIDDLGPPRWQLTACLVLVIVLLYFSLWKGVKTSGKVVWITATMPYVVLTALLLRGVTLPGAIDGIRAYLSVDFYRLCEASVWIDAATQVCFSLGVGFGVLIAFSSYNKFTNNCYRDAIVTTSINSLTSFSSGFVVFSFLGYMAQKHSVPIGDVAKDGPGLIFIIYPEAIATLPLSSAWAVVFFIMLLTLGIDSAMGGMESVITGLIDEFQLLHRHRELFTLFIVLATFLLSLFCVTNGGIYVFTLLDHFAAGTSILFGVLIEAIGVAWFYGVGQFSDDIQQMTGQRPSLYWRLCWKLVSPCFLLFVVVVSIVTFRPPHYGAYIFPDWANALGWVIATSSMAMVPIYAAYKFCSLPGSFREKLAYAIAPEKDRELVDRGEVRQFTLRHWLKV
T2 sequence (P23975 whole entry): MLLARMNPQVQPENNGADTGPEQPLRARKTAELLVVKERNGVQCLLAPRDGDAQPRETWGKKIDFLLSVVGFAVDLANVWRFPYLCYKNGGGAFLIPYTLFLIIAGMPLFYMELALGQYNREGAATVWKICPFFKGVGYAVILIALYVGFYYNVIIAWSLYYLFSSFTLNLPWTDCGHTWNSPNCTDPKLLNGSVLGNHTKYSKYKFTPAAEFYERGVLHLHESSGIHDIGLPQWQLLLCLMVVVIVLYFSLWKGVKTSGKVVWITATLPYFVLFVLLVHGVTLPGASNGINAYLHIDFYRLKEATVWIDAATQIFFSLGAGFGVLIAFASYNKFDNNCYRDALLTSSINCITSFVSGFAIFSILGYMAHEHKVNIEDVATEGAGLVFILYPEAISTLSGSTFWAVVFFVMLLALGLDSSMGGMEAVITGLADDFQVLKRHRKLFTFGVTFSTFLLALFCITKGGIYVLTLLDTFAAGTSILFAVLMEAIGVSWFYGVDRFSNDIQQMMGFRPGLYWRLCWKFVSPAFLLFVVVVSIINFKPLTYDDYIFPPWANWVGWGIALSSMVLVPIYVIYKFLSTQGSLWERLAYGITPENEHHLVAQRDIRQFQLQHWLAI
Chain of CYP2D6 (P10635 whole entry): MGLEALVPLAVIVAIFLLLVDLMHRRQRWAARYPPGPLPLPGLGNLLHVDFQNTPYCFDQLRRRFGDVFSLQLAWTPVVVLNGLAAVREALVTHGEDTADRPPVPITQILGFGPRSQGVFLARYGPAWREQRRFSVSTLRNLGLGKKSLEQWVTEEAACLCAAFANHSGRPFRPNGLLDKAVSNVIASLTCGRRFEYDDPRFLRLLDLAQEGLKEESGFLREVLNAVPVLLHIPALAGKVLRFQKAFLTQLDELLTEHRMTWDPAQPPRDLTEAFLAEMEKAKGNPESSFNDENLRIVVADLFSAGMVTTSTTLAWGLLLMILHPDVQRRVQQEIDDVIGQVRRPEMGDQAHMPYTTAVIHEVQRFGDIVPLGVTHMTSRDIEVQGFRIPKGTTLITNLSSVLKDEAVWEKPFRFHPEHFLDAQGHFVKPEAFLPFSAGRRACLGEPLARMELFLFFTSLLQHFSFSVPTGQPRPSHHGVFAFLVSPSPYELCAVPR
Chain of CYP2C9 (P11712 whole entry): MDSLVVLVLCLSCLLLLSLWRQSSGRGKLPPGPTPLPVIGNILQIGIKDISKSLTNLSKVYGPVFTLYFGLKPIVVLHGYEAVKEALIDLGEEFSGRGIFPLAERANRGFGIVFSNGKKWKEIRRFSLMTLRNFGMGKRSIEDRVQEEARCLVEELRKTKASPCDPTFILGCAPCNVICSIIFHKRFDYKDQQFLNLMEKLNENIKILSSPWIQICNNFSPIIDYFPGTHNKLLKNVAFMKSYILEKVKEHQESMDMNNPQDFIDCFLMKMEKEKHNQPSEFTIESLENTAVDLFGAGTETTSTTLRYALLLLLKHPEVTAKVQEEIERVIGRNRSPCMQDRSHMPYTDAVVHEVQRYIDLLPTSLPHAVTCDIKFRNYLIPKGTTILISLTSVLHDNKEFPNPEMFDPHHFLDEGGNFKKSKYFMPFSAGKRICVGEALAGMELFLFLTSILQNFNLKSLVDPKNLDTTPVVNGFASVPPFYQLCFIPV
Chain of CYP3A4 (P08684 whole entry): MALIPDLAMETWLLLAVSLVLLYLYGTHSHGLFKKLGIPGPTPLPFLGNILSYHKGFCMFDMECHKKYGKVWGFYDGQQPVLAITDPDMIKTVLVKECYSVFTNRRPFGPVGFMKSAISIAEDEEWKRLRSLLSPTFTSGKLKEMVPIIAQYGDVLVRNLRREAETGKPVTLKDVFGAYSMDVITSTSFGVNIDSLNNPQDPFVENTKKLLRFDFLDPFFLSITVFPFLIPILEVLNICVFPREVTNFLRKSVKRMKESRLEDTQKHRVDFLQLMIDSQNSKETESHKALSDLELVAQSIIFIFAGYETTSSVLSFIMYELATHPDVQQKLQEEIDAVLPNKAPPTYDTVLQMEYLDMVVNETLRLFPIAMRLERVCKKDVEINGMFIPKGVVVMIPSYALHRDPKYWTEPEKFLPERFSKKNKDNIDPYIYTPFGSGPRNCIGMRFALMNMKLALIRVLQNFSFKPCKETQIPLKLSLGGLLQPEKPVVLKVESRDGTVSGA
Chain of 5-hydroxytryptamine receptor 2A (Homo sapiens) (P28223 whole entry): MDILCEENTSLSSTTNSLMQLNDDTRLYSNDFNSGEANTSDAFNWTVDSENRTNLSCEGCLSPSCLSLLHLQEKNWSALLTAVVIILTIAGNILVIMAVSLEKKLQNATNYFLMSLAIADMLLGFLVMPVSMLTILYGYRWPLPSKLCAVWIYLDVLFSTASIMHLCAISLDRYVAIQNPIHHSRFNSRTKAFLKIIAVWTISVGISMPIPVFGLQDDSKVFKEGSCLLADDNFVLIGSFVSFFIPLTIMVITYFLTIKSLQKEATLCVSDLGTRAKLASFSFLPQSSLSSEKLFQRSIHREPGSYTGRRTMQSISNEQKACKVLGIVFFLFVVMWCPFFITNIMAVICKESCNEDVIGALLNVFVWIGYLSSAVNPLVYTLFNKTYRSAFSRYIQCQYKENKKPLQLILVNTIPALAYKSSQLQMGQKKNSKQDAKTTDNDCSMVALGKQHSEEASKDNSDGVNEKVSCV

With `CNC[C@@H](O)[C@H](c1ccccc1)n1ccc2ccccc21` [listing 1 of 2 here] the inhibition at 3 µM (CYP3A4) was under 20%, the solubility [1] was over 50 µg/mL and the Papp [2] was 4.6 ×10⁻⁶ cm/s. It also gave an IC50 [3] of 358 nM, a half-life at 1 µM [4] of 15.9 min and a half-life at 1 µM [5] of over 60 min. It also gave an inhibition at 3 µM (CYP2C9) of under 20%, a half-life at 1 µM [6] of 9.7 min and an inhibition at 3 µM (CYP2D6) of under 20%. It also gave a half-life at 1 µM [7] of 9.8 min.

With `CNC[C@@H](O)[C@@H](c1ccccc1)n1ccc2ccccc21` the inhibition [8] was 31% and the IC50 [3] was 161 nM.

`CNC[C@H](O)[C@@H](c1ccccc1)n1ccc2ccccc21` [listing 1 of 2 here] gave an IC50 [3] of 144 nM.

Compound `CNC[C@H](O)[C@H](c1ccccc1)n1ccc2ccccc21` has an inhibition [8] of 0% and an IC50 [3] of 918 nM.

With `CNC[C@@H](O)[C@H](c1ccccc1)n1ccc2ccccc21` [listing 2 of 2 here] the Activity [9] was “inactive”, the inhibition [8] was 19% and the Activity [10] was “inactive”. The Activity [11] was “inactive” and the Activity [12] was “inactive”.

`CNC[C@H](O)[C@@H](c1ccccc1)n1ccc2ccccc21` [listing 2 of 2 here] showed an inhibition [8] of 18%.

In the case of `OC1(c2ccc(Cl)cc2)c2ccccc2C2=NCCN21` (stereo not given), the inhibition [8] is reported as 22.1%.

Compound `CCNC[C@H](O)[C@H](c1ccccc1)n1ccc2ccccc21` (racemic) has a Ratio IC50 (MDCK-Net6) of 0.2, an IC50 [13] of 1200 nM and an IC50 [3] of 298 nM.

`CNC[C@H](O)[C@H](c1ccccc1)n1ccc2cc(Cl)ccc21` (racemic) showed a Ratio IC50 (MDCK-Net6) of 0.2, an IC50 [13] of 49 nM and an IC50 [3] of 10 nM.

Compound `CNC[C@H](O)[C@H](c1ccccc1)n1ccc2cc(F)ccc21` (racemic) has a Ratio IC50 (MDCK-Net6) of 1, an IC50 [13] of 118 nM and an IC50 [3] of 95 nM.

`O[C@@H](CNCC1CCCCC1)[C@H](c1ccccc1)n1ccc2ccccc21` (racemic) showed an inhibition [14] of 41% and an IC50 [3] of 2830 nM.

`CNC[C@H](O)[C@H](c1ccccc1)n1ccc2cc(OC)ccc21` (racemic) showed an inhibition [8] of 2%, a Ratio IC50 (MDCK-Net6) of 0.1 and an IC50 [13] of 230 nM. It also gave an IC50 [3] of 31 nM.

In the case of `CCNC[C@H](O)[C@H](c1ccccc1)n1cc(C)c2ccccc21` (racemic), the inhibition [8] is reported as 0%, the Ratio IC50 (MDCK-Net6) is reported as 2 and the IC50 [13] is reported as 1100 nM. It also gave an IC50 [3] of 2200 nM.

In the case of `Cc1cn([C@@H](c2ccccc2)[C@@H](O)CN)c2ccccc12` (racemic), the inhibition [8] is reported as 6%, the Ratio IC50 (MDCK-Net6) is reported as 1 and the IC50 [13] is reported as 321 nM. The IC50 [3] was 299 nM.

`NC[C@H](O)[C@H](c1ccccc1)n1ccc2ccccc21` (racemic) showed an inhibition [8] of 7%, a Ratio IC50 (MDCK-Net6) of 0.1 and an IC50 [3] of 50 nM.

`CNC[C@H](O)[C@H](c1ccccc1)n1cc(C)c2ccccc21` (racemic) gave an inhibition [8] of 0% and an IC50 [3] of 251 nM.

`CC(C)NC[C@H](O)[C@H](c1ccccc1)n1ccc2ccccc21` (racemic) showed an inhibition [14] of 13%.

In the case of `CCN(C)C[C@H](O)[C@H](c1ccccc1)n1ccc2ccccc21` (racemic), the inhibition [14] is reported as 38%.

With `CCNC[C@H](O)[C@H](c1ccccc1)n1ccc2cc(F)ccc21` (racemic) the inhibition [14] was 11%.

`CN(C)C[C@H](O)[C@H](c1ccccc1)n1ccc2ccccc21` (racemic) showed an inhibition [14] of 25%.

Work on `CN1CCN(C[C@H](O)[C@H](c2ccccc2)n2ccc3ccccc32)CC1` (racemic) yielded an inhibition [14] of 5%.

With `CNC[C@H](O)[C@H](c1ccccc1)n1c(C)cc2ccccc21` (racemic) the inhibition [14] was 45%.

`NC[C@H](O)[C@H](c1ccccc1)n1ccc2cc(F)ccc21` (racemic) showed an inhibition [14] of 32%.

With `O[C@@H](CN1CCNCC1)[C@H](c1ccccc1)n1ccc2ccccc21` (racemic) the inhibition [14] was 34%.

Work on `O[C@@H](CN1CCOCC1)[C@H](c1ccccc1)n1ccc2ccccc21` (racemic) yielded an inhibition [14] of 18%.

For `O[C@@H](CNCc1ccccc1)[C@H](c1ccccc1)n1ccc2ccccc21` (racemic), the inhibition [14] was 26%.

For `O[C@@H](CNCc1ccncc1)[C@H](c1ccccc1)n1ccc2ccccc21` (racemic), the inhibition [14] was 24%.

Compound `CNC[C@@H](O)[C@H](c1ccccc1)n1ccc2ccccc21` (stereo in doubt) [listing 1 of 2 here] has an IC50 [3] of 126 nM.

Compound `CNC[C@H](O)[C@@H](c1ccccc1)n1ccc2ccccc21` (stereo in doubt) [listing 1 of 2 here] has an IC50 [3] of 74 nM.

`CNC[C@@H](O)[C@H](c1ccccc1)n1ccc2ccccc21` (stereo in doubt) [listing 2 of 2 here] showed an inhibition [8] of 7%.

In the case of `CNC[C@H](O)[C@@H](c1ccccc1)n1ccc2ccccc21` (stereo in doubt) [listing 2 of 2 here], the inhibition [8] is reported as 4%.
